In the supplement of paper PMC11061612:

Legend:
AZD5991 = compound: Cc1c2c(nn1C)CSCc1cc(n(C)n1)CSc1cc(c3ccccc3c1)OCCCc1c(C(=O)O)n(C)c3c-2c(Cl)ccc13 [AZD5991]; details: max 1 µM
Summary of the method: (§1)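 Plates with 1536 wells received cancer cell lines in 7.5 μl of DMEM/F12 or RPMI containing 10% FBS. After 24 hours at 37°C and 5% CO2, cells were dosed for 72 hours with final DMSO typically 0.2%, and viability was read by CellTiter-Glo 2.0 luminescence scaled between blank-well and DMSO-well means. The single-agent IC50 was taken from a logistic fit of the dose responses made with a non-linear mixed effects model, that logistic curve having two parameters.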

AZD1390 = compound: CC(C)n1c(=O)n(C)c2cnc3cc(F)c(-c4ccc(OCCCN5CCCCC5)nc4)cc3c21 [AZD1390]; details: max 0.3 µM
Summary of the method: as §1

Gemcitabine = compound: Nc1ccn([C@@H]2O[C@H](CO)[C@@H](O)C2(F)F)c(=O)n1 [Gemcitabine]; details: max 0.3 µM
Summary of the method: as §1

AZD5363 = compound: C1CN(CCC1(C(=O)N[C@@H](CCO)C2=CC=C(C=C2)Cl)N)C3=NC=NC4=C3C=CN4 [AZD5363]; details: max 10 µM
Summary of the method: as §1

SN-38 = compound: CCc1c2c(nc3ccc(O)cc13)-c1cc3c(c(=O)n1C2)COC(=O)[C@]3(O)CC [SN-38]; details: max 0.3 µM
Summary of the method: as §1

AZD8186 = compound: C[C@@H](Nc1cc(F)cc(F)c1)c1cc(C(=O)N(C)C)cc2c(=O)cc(N3CCOCC3)oc12 [AZD8186]; details: max 10 µM
Summary of the method: as §1

5-Fluorouracil = compound: O=c1[nH]cc(F)c(=O)[nH]1 [5-Fluorouracil]; details: max 20 µM
Summary of the method: as §1

Alisertib = compound: COc1cc(Nc2ncc3c(n2)-c2ccc(Cl)cc2C(c2c(F)cccc2OC)=NC3)ccc1C(=O)O [Alisertib]; details: max 10 µM
Summary of the method: as §1

AZD1775 = compound: C=CCn1c(=O)c2cnc(Nc3ccc(N4CCN(C)CC4)cc3)nc2n1-c1cccc(C(C)(C)O)n1 [AZD1775]; details: max 3 µM
Summary of the method: as §1

Olaparib = compound: O=C(c1cc(Cc2n[nH]c(=O)c3ccccc23)ccc1F)N1CCN(C(=O)C2CC2)CC1 [Olaparib]; details: max 10 µM
Summary of the method: as §1

MK-2206 = compound: NC1(c2ccc(-c3nc4ccn5c(=O)[nH]nc5c4cc3-c3ccccc3)cc2)CCC1 [MK-2206]; details: max 10 µM
Summary of the method: as §1

SG3199 = compound: CC1=CN2[C@@H](C1)C=NC3=CC(=C(C=C3C2=O)OC)OCCCCCOC4=C(C=C5C(=C4)N=C[C@@H]6CC(=CN6C5=O)C)OC [SG3199]; details: max 0.001 µM
Summary of the method: as §1

[1] = compound: O=C(Nc1ccc2[nH]nc(-c3ccncc3)c2c1)[C@@H]1CCN(CC(=O)N2CCN(c3ccc(-c4ncccn4)cc3)CC2)C1; details: max 5 µM
Summary of the method: as §1

Palbociclib = compound: CC(=O)c1c(C)c2cnc(Nc3ccc(N4CCNCC4)cn3)nc2n(C2CCCC2)c1=O [Palbociclib]; details: max 10 µM
Summary of the method: as §1

AZD0156 = compound: CN(C)CCCOc1ccc(-c2ccc3ncc4c(c3c2)n(C2CCOCC2)c(=O)n4C)cn1 [AZD0156]; details: max 3 µM
Summary of the method: as §1

Gefitinib = compound: COc1cc2ncnc(Nc3ccc(F)c(Cl)c3)c2cc1OCCCN1CCOCC1 [Gefitinib]; details: max 10 µM
Summary of the method: as §1

Etoposide = compound: COc1cc([C@@H]2c3cc4c(cc3[C@@H](O[C@@H]3O[C@@H]5CO[C@@H](C)O[C@H]5[C@H](O)[C@H]3O)[C@H]3COC(=O)[C@H]23)OCO4)cc(OC)c1O [Etoposide]; details: max 10 µM
Summary of the method: as §1

Paclitaxel = compound: CC(=O)O[C@H]1C(=O)[C@@]2(C)[C@H]([C@H](OC(=O)c3ccccc3)[C@]3(O)C[C@H](OC(=O)[C@H](O)[C@@H](NC(=O)c4ccccc4)c4ccccc4)C(C)=C1C3(C)C)[C@]1(OC(C)=O)CO[C@@H]1C[C@@H]2O [Paclitaxel]; details: max 3 µM
Summary of the method: as §1

AZD2811 = compound: CCN(CCO)CCCOc1ccc2c(Nc3cc(CC(=O)Nc4cccc(F)c4)[nH]n3)ncnc2c1 [AZD2811]; details: max 1 µM
Summary of the method: as §1

Trametinib = compound: CC(=O)Nc1cccc(-n2c(=O)n(C3CC3)c(=O)c3c(Nc4ccc(I)cc4F)n(C)c(=O)c(C)c32)c1 [Trametinib]; details: max 1 µM
Summary of the method: as §1

Savolitinib = compound: C[C@@H](c1ccc2nccn2c1)n1nnc2ncc(-c3cnn(C)c3)nc21 [Savolitinib]; details: max 1 µM
Summary of the method: as §1

AZD5153 = compound: COc1nnc2ccc(N3CCC(c4ccc(OCCN5CCN(C)C(=O)[C@H]5C)cc4)CC3)nn12 [AZD5153]; details: max 1 µM
Summary of the method: as §1

Doxorubicin = compound: COc1cccc2c1C(=O)c1c(O)c3c(c(O)c1C2=O)C[C@@](O)(C(=O)CO)C[C@@H]3O[C@H]1C[C@H](N)[C@H](O)[C@H](C)O1 [Doxorubicin]; details: max 1 µM
Summary of the method: as §1

AZD4320 = compound: CN(CC[C@H](CSC1=CC=CC=C1)NC2=C(C=C(C=C2)S(=O)(=O)NC(=O)C3=CC=C(C=C3)N4CCC(CC4)[C@H](C5=CC=CC=C5C6=CC=C(C=C6)Cl)O)S(=O)(=O)C(F)(F)F)CCO [AZD4320]; details: max 1 µM
Summary of the method: as §1

Carboplatin = compound: C1CC(C1)(C(=O)[O-])C(=O)[O-].N.N.[Pt+2] [Carboplatin]; details: max 10 µM
Summary of the method: as §1

AZD6738 = compound: C[C@@H]1COCCN1C2=NC(=NC(=C2)C3(CC3)[S@](=N)(=O)C)C4=C5C=CNC5=NC=C4 [AZD6738]; details: max 10 µM
Summary of the method: as §1

Lapatinib = compound: CS(=O)(=O)CCNCc1ccc(-c2ccc3ncnc(Nc4ccc(OCc5cccc(F)c5)c(Cl)c4)c3c2)o1 [Lapatinib]; details: max 10 µM
Summary of the method: as §1

Crizotinib = compound: C[C@@H](Oc1cc(-c2cnn(C3CCNCC3)c2)cnc1N)c1c(Cl)ccc(F)c1Cl [Crizotinib]; details: max 10 µM
Summary of the method: as §1

Venetoclax = compound: CC1(C)CCC(CN2CCN(c3ccc(C(=O)NS(=O)(=O)c4ccc(NCC5CCOCC5)c([N+](=O)[O-])c4)c(Oc4cnc5[nH]ccc5c4)c3)CC2)=C(c2ccc(Cl)cc2)C1 [Venetoclax]; details: max 1 µM
Summary of the method: as §1

Taselisib = compound: Cc1nc(-c2cn3c(n2)-c2ccc(-c4cnn(C(C)(C)C(N)=O)c4)cc2OCC3)n(C(C)C)n1 [Taselisib]; details: max 10 µM
Summary of the method: as §1

SRA737 = compound: N#Cc1cnc(Nc2cc(NC[C@H]3CNCCO3)c(C(F)(F)F)cn2)cn1 [SRA737]; details: max 10 µM
Summary of the method: as §1

Prexasertib = compound: COc1cccc(OCCCN)c1-c1cc(Nc2cnc(C#N)cn2)n[nH]1 [Prexasertib]; details: max 1 µM
Summary of the method: as §1

Selumetinib = compound: Cn1cnc2c(F)c(Nc3ccc(Br)cc3Cl)c(C(=O)NOCCO)cc21 [Selumetinib]; details: max 10 µM
Summary of the method: as §1

AZD7648 = compound: Cc1cc2ncnn2cc1Nc1ncc2c(n1)n(C1CCOCC1)c(=O)n2C [AZD7648]; details: max 10 µM
Summary of the method: as §1

Dasatinib = compound: CC1=C(C(=CC=C1)Cl)NC(=O)C2=CN=C(S2)NC3=CC(=NC(=N3)C)N4CCN(CC4)CCO [Dasatinib]; details: max 2 µM
Summary of the method: as §1

Cell Line | IC50, cell viability 72 h (AZD5991) [nM] | IC50, cell viability 72 h (AZD1390) [nM] | IC50, cell viability 72 h (Gemcitabine) [nM] | IC50, cell viability 72 h (AZD5363) [nM] | IC50, cell viability 72 h (SN-38) [nM] | IC50, cell viability 72 h (AZD8186) [nM] | IC50, cell viability 72 h (5-Fluorouracil) [nM] | IC50, cell viability 72 h (Alisertib) [nM] | IC50, cell viability 72 h (AZD1775) [nM] | IC50, cell viability 72 h (Olaparib) [nM] | IC50, cell viability 72 h (MK-2206) [nM] | IC50, cell viability 72 h (SG3199) [nM] | IC50, cell viability 72 h [1] [nM] | IC50, cell viability 72 h (Palbociclib) [nM] | IC50, cell viability 72 h (AZD0156) [nM] | IC50, cell viability 72 h (Gefitinib) [nM] | IC50, cell viability 72 h (Etoposide) [nM] | IC50, cell viability 72 h (Paclitaxel) [nM] | IC50, cell viability 72 h (AZD2811) [nM] | IC50, cell viability 72 h (Trametinib) [nM] | IC50, cell viability 72 h (Savolitinib) [nM] | IC50, cell viability 72 h (AZD5153) [nM] | IC50, cell viability 72 h (Doxorubicin) [nM] | IC50, cell viability 72 h (AZD4320) [nM] | IC50, cell viability 72 h (Carboplatin) [nM] | IC50, cell viability 72 h (AZD6738) [nM] | IC50, cell viability 72 h (Lapatinib) [nM] | IC50, cell viability 72 h (Crizotinib) [nM] | IC50, cell viability 72 h (Venetoclax) [nM] | IC50, cell viability 72 h (Taselisib) [nM] | IC50, cell viability 72 h (SRA737) [nM] | IC50, cell viability 72 h (Prexasertib) [nM] | IC50, cell viability 72 h (Selumetinib) [nM] | IC50, cell viability 72 h (AZD7648) [nM] | IC50, cell viability 72 h (Dasatinib) [nM]
SHP-77 (Small Cell Lung Carcinoma) | > 1000 | > 300 | 169 | > 10000 | > 300 | > 10000 | 14800 | > 10000 | 1800 | > 10000 | > 10000 | > 1 | > 5000 | > 10000 | > 3000 | > 10000 | > 10000 | 76.3 | > 1000 | > 1000 | > 1000 | > 1000 | > 1000 | > 1000 | > 10000 | > 10000 | > 10000 | > 10000 | > 1000 | > 10000 | > 10000 | 102 | > 10000 | > 10000 | > 2000
MFE-280 (Endometrial Carcinoma) | > 1000 | > 300 | > 300 | > 10000 | 198 | > 10000 | > 20000 | 4940 | > 3000 | > 10000 | 3590 | > 1 | > 5000 | > 10000 | > 3000 | > 10000 | 7530 | 533 | > 1000 | > 1000 | > 1000 | > 1000 | > 1000 | > 1000 | > 10000 | > 10000 | > 10000 | > 10000 | > 1000 | 177 | > 10000 | > 1000 | > 10000 | > 10000 | > 2000
SK-PN-DW (Other Solid Carcinomas) | 70 | > 300 | > 300 | 4780 | 4.05 | > 10000 | 5010 | 119 | 1590 | > 10000 | > 10000 | > 1 | > 5000 | > 10000 | > 3000 | > 10000 | 1530 | 11 | 191 | > 1000 | > 1000 | 562 | 199 | > 1000 | > 10000 | 558 | > 10000 | 4410 | 757 | 4420 | 986 | 5.83 | > 10000 | > 10000 | > 2000
PSN1 (Pancreatic Carcinoma) | > 1000 | > 300 | 33.6 | > 10000 | 110 | > 10000 | 7840 | > 10000 | 1630 | > 10000 | > 10000 | > 1 | 193 | > 10000 | > 3000 | > 10000 | 8600 | 61.9 | > 1000 | 18.6 | > 1000 | > 1000 | > 1000 | > 1000 | > 10000 | > 10000 | > 10000 | 7760 | > 1000 | 5380 | > 10000 | > 1000 | 952 | > 10000 | 244
LK-2 (Squamous Cell Lung Carcinoma) | > 1000 | > 300 | 277 | > 10000 | 199 | > 10000 | > 20000 | 60.6 | 295 | > 10000 | > 10000 | > 1 | 1930 | > 10000 | > 3000 | > 10000 | 9260 | 5.55 | 55.1 | 349 | > 1000 | > 1000 | > 1000 | > 1000 | > 10000 | > 10000 | > 10000 | 5710 | > 1000 | > 10000 | > 10000 | 137 | > 10000 | > 10000 | > 2000
